Data taken from the supplement of paper PMC11962398.

Assays:
BI-2493 [1] = compound: T1, C[C@H]1CNCCN1c1nccc(-c2noc3c2CCC[C@@]32CCCc3sc(N)c(C#N)c32)n1 [BI-2493]; assay: 1 - AUC of viability dose-response curve (sensitivity) (fraction); higher = more sensitive; details: 5 days
Description: (§1)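 PRISM pooled barcoded cancer cell line viability screen (Broad Institute) with BI-2493 at 8 doses in threefold dilutions from 0.00457 to 10 µmol/L, 5-day treatment; curves fitted per cell line. IC50 is undefined (placeholder) for resistant lines. AUC is capped at 1, and sensitivity is reported as 1 − AUC.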

BI-2493 [2] = compound: T1, BI-2493; details: 5 days
Description: as §1

## 8MGBA_CENTRAL_NERVOUS_SYSTEM
BI-2493 [1]
  1 - AUC of viability dose-response curve: 0.0867
BI-2493 [2]
  IC50 of cell viability: 6.11 µM

## 22RV1_PROSTATE
BI-2493 [1]
  1 - AUC of viability dose-response curve: 0.111
BI-2493 [2]
  IC50 of cell viability: 5.65 µM

## 42MGBA_CENTRAL_NERVOUS_SYSTEM
BI-2493 [1]
  1 - AUC of viability dose-response curve: 0.073
BI-2493 [2]
  IC50 of cell viability: > 10 µM

## 93T449_SOFT_TISSUE
BI-2493 [1]
  1 - AUC of viability dose-response curve: 0.0121
BI-2493 [2]
  IC50 of cell viability: 9.31 µM

## 94T778_SOFT_TISSUE
BI-2493 [1]
  1 - AUC of viability dose-response curve: 0.112
BI-2493 [2]
  IC50 of cell viability: 5.6 µM

## 143B_BONE
BI-2493 [1]
  1 - AUC of viability dose-response curve: 0.0198
BI-2493 [2]
  IC50 of cell viability: 8.98 µM

## 253JBV_URINARY_TRACT
BI-2493 [1]
  1 - AUC of viability dose-response curve: 0.0713
BI-2493 [2]
  IC50 of cell viability: 6.75 µM

## 253J_URINARY_TRACT
BI-2493 [1]
  1 - AUC of viability dose-response curve: 0.0834
BI-2493 [2]
  IC50 of cell viability: 4.76 µM

## 639V_URINARY_TRACT
BI-2493 [1]
  1 - AUC of viability dose-response curve: 0.116
BI-2493 [2]
  IC50 of cell viability: > 10 µM

## 647V_URINARY_TRACT
BI-2493 [1]
  1 - AUC of viability dose-response curve: 0.0938
BI-2493 [2]
  IC50 of cell viability: 7.05 µM

## 697_HAEMATOPOIETIC_AND_LYMPHOID_TISSUE
BI-2493 [1]
  1 - AUC of viability dose-response curve: 0.0309
BI-2493 [2]
  IC50 of cell viability: 8.3 µM

## 769P_KIDNEY
BI-2493 [1]
  1 - AUC of viability dose-response curve: 0.0662
BI-2493 [2]
  IC50 of cell viability: 6.88 µM

## 786O_KIDNEY
BI-2493 [1]
  1 - AUC of viability dose-response curve: 0.241
BI-2493 [2]
  IC50 of cell viability: 2.69 µM

## 921_UVEA
BI-2493 [1]
  1 - AUC of viability dose-response curve: 0.13
BI-2493 [2]
  IC50 of cell viability: 4.34 µM

## 1618K_TESTIS
BI-2493 [1]
  1 - AUC of viability dose-response curve: 0.206
BI-2493 [2]
  IC50 of cell viability: 2.47 µM

## 1777NRPMET_TESTIS
BI-2493 [1]
  1 - AUC of viability dose-response curve: 0.0116
BI-2493 [2]
  IC50 of cell viability: 9.43 µM

## 5637_URINARY_TRACT
BI-2493 [1]
  1 - AUC of viability dose-response curve: 0.225
BI-2493 [2]
  IC50 of cell viability: 5.2 µM

## 8305C_THYROID
BI-2493 [1]
  1 - AUC of viability dose-response curve: 0.00549
BI-2493 [2]
  IC50 of cell viability: 9.71 µM

## 8505C_THYROID
BI-2493 [1]
  1 - AUC of viability dose-response curve: 0.00728
BI-2493 [2]
  IC50 of cell viability: 9.69 µM

## 9505BIK_PANCREAS
BI-2493 [1]
  1 - AUC of viability dose-response curve: 0.321
BI-2493 [2]
  IC50 of cell viability: 1.57 µM

## 2313287_STOMACH
BI-2493 [1]
  1 - AUC of viability dose-response curve: 0.233
BI-2493 [2]
  IC50 of cell viability: 1.34 µM

## A3KAW_HAEMATOPOIETIC_AND_LYMPHOID_TISSUE
BI-2493 [1]
  1 - AUC of viability dose-response curve: 0.191
BI-2493 [2]
  IC50 of cell viability: 3.54 µM

## A101D_SKIN
BI-2493 [1]
  1 - AUC of viability dose-response curve: 0.0656
BI-2493 [2]
  IC50 of cell viability: 8.09 µM

## A172_CENTRAL_NERVOUS_SYSTEM
BI-2493 [1]
  1 - AUC of viability dose-response curve: 0.178
BI-2493 [2]
  IC50 of cell viability: 4.33 µM

## A204_SOFT_TISSUE
BI-2493 [1]
  1 - AUC of viability dose-response curve: 0.163
BI-2493 [2]
  IC50 of cell viability: 4.24 µM

## A253_SALIVARY_GLAND
BI-2493 [1]
  1 - AUC of viability dose-response curve: 0.197
BI-2493 [2]
  IC50 of cell viability: 4.12 µM

## A375_SKIN
BI-2493 [1]
  1 - AUC of viability dose-response curve: 0.016
BI-2493 [2]
  IC50 of cell viability: 9.23 µM

## A388_SKIN
BI-2493 [1]
  1 - AUC of viability dose-response curve: 0.0151
BI-2493 [2]
  IC50 of cell viability: > 10 µM

## A427_LUNG
BI-2493 [1]
  1 - AUC of viability dose-response curve: 0.349
BI-2493 [2]
  IC50 of cell viability: 0.735 µM

## A498_KIDNEY
BI-2493 [1]
  1 - AUC of viability dose-response curve: 0.113
BI-2493 [2]
  IC50 of cell viability: 5.88 µM

## A549_LUNG
BI-2493 [1]
  1 - AUC of viability dose-response curve: 0.207
BI-2493 [2]
  IC50 of cell viability: 2.17 µM

## A673_BONE
BI-2493 [1]
  1 - AUC of viability dose-response curve: 0.0226
BI-2493 [2]
  IC50 of cell viability: 9.04 µM

## A704_KIDNEY
BI-2493 [1]
  1 - AUC of viability dose-response curve: 0.0519
BI-2493 [2]
  IC50 of cell viability: 9.08 µM

## A1207_CENTRAL_NERVOUS_SYSTEM
BI-2493 [1]
  1 - AUC of viability dose-response curve: 0.179
BI-2493 [2]
  IC50 of cell viability: 7.21 µM

## A2058_SKIN
BI-2493 [1]
  1 - AUC of viability dose-response curve: 0.0892
BI-2493 [2]
  IC50 of cell viability: 5.91 µM

## A2780_OVARY
BI-2493 [1]
  1 - AUC of viability dose-response curve: 0.103
BI-2493 [2]
  IC50 of cell viability: 5.15 µM

## ABC1_LUNG
BI-2493 [1]
  1 - AUC of viability dose-response curve: 0.0666
BI-2493 [2]
  IC50 of cell viability: 7.12 µM

## ACCMESO1_PLEURA
BI-2493 [1]
  1 - AUC of viability dose-response curve: 0.00668
BI-2493 [2]
  IC50 of cell viability: 9.66 µM

## ACHN_KIDNEY
BI-2493 [1]
  1 - AUC of viability dose-response curve: 0.133
BI-2493 [2]
  IC50 of cell viability: 6.46 µM

## AGS_STOMACH
BI-2493 [1]
  1 - AUC of viability dose-response curve: 0.313
BI-2493 [2]
  IC50 of cell viability: 0.844 µM

## ALLSIL_HAEMATOPOIETIC_AND_LYMPHOID_TISSUE
BI-2493 [1]
  1 - AUC of viability dose-response curve: 0.033
BI-2493 [2]
  IC50 of cell viability: 9.13 µM

## AM38_CENTRAL_NERVOUS_SYSTEM
BI-2493 [1]
  1 - AUC of viability dose-response curve: 0.101
BI-2493 [2]
  IC50 of cell viability: 4.3 µM
